Reference: patent US10294202B2, “Pyrrolidinones as herbicides” (FMC Corporation, priority 2013, dated 2019)

Key:
dayflower, VA = test: Test E preemergence herbicide test; format: in vivo, Commelina virginica; set-up: key: 0 = no effect, 100 = complete control
Text: (§1) Seeds of plant species selected from corn (Zea mays), soybean (Glycine max), velvetleaf (Abutilon theophrasti), lambsquarters (Chenopodium album), wild poinsettia (Euphorbia heterophylla), pigweed, palmer (palmer pigweed, Amaranthus palmeri), waterhemp (common waterhemp, Amaranthus rudis), surinam grass (Brachiaria decumbens), crabgrass, large (large crabgrass, Digitaria sanguinalis), crabgrass, Brazil (Brazilian crabgrass, Digitaria horizontalis), panicum, fall (fall panicum, Panicum dichotomiflorum), foxtail, giant (giant foxtail, Setaria faberii), foxtail, green (green foxtail, Setaria viridis), goosegrass (Eleusine indica), johnsongrass (Sorghum halepense), ragweed (common ragweed, Ambrosia elatior), barnyardgrass (Echinochloa crus-galli), sandbur (southern sandbur, Cenchrus echinatus), arrowleaf […] rhombifolia), ryegrass, Italian (Italian ryegrass, Lolium multiflorum), dayflower, VA (Virginia dayflower, Commelina virginica), field bindweed (Convolvulus arvensis), morningglory (Ipomoea coccinea), nightshade (eastern black nightshade, Solanum ptycanthum), kochia (Kochia scoparia), nutsedge, yellow (yellow nutsedge, Cyperus esculentus), cocklebur (common cocklebur, Xanthium strumarium), smartweed (ladysthumb smartweed, Polygonum Persicaria) and beggarticks (hairy beggarticks, Bidens pilosa), were planted into a silt loam soil and treated preemergence with test chemicals formulated in a non-phytotoxic solvent mixture which included a surfactant. Treated plants and controls were maintained in a greenhouse for 21 days, after which time all species were compared to controls and visually evaluated. Plant response ratings, summarized in Table E, are based on a scale of 0 to 100 where 0 is no effect and 100 is complete control. A dash (-) response means no test result.

lambsquarters = test: Test E preemergence herbicide test; format: in vivo, Chenopodium album; set-up: key: 0 = no effect, 100 = complete control
Text: as §1

monochoria = test: Test F flood (paddy) test; format: in vivo, Monochoria vaginalis; details: 21 d, scale 0-100
Outline: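 Greenhouse paddy, 30/27 °C day/night, 16-h light; sterilized Tama silt loam, 2.6% OM. Plants at 2.0–2.5 leaves; flood 3 cm, compound added directly to water. Visual score at 21 d, 0 = no effect, 100 = complete control, relative to untreated.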

oat, wild = test: Test D pre-/postemergence herbicide test; format: in vivo, Avena fatua; details: Preemergence, scale 0 to 100 (0 no effect, 100 complete control)
Text: (§2) Seeds of plant species selected from bluegrass (annual bluegrass, Poa annua), blackgrass (Alopecurus myosuroides), canarygrass (littleseed canarygrass, Phalaris minor), chickweed (common chickweed, Stellaria media), galium (catchweed bedstraw, Galium aparine), bromegrass, downy (downy bromegrass, Bromus tectorum), field poppy (Papaver rhoeas), field violet (Viola arvensis), foxtail, green (green foxtail, Setaria viridis), deadnettle (henbit deadnettle, Lamium amplexicaule), ryegrass, Italian (Italian ryegrass, Lolium multiflorum), kochia (Kochia scoparia), lambsquarters (Chenopodium album), oilseed rape (Brassica napus), pigweed (Amaranthus retroflexus), chamomile (scentless chamomile, Matricaria inodora), Russian thistle (Salsola kali), speedwell (bird's-eye speedwell, Veronica persica), barley, spring (spring barley, Hordeum vulgare), wheat, spring (spring wheat, Triticum aestivum), buckwheat, wild (wild buckwheat, Polygonum convolvulus), mustard, wild (wild mustard, Sinapis arvensis), oat, wild (wild oat, Avena fatua), radish, wild (wild radish, Raphanus raphanistrum), […]), barley, winter (winter barley, Hordeum vulgare), and wheat, winter (winter wheat, Triticum aestivum) were planted into a silt loam soil and treated preemergence with test chemicals formulated in a non-phytotoxic solvent mixture which included a surfactant. At the same time, these species were planted in pots containing Redi-Earth® planting medium (Scotts Company, 14111 Scottslawn Road, Marysville, Ohio 43041) comprising spaghnum peat moss, vermiculite, wetting agent and starter nutrients and treated with postemergence applications of the test chemicals formulated in the same manner. Plants ranged in height from 2 to 18 cm (1- to 4-leaf stage). Treated plants and controls were maintained in a controlled growth environment for 7 to 21 days after which time all species were compared to controls and visually evaluated. Plant response ratings, summarized in Table D, are based on a scale of 0 to 100 where 0 is no effect and 100 is complete control. A dash (-) response means no test result.

wheat, spring = test: Test D pre-/postemergence herbicide test; format: in vivo, Triticum aestivum; details: Preemergence, scale 0 to 100 (0 no effect, 100 complete control)
Outline: (§3)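 Seeds sown in silt loam were sprayed preemergence with test chemicals in a non-phytotoxic solvent mixture with surfactant. Postemergence plants grown in peat/vermiculite medium were treated at 2–18 cm (1- to 4-leaf stage). After 7 to 21 days in a controlled environment, injury was rated visually versus controls, 0 (no effect) to 100 (complete control).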

wheat, winter = test: Test D pre-/postemergence herbicide test; format: in vivo, Triticum aestivum; details: Preemergence, scale 0 to 100 (0 no effect, 100 complete control)
Outline: as §3

chamomile = test: Test D pre-/postemergence herbicide test; format: in vivo, Matricaria inodora; details: Preemergence; for Plant response rating, Chamomile: scale 0 to 100 (0 no effect, 100 complete control)
Text: as §2

SMILES	Plant response rating, Dayflower, VA (dayflower, VA; 16 g ai/ha)	Plant response rating, Dayflower, VA (dayflower, VA; 62 g ai/ha)	Plant response rating, Dayflower, VA (dayflower, VA; 125 g ai/ha)	Plant response rating, Lambsquarters (lambsquarters; 16 g ai/ha)	Plant response rating, Lambsquarters (lambsquarters; 31 g ai/ha)	Plant response rating, Lambsquarters (lambsquarters; 62 g ai/ha)	Plant response rating, Lambsquarters (lambsquarters; 250 g ai/ha)	Plant response rating, Dayflower, VA (dayflower, VA; 31 g ai/ha)	Plant response rating, Dayflower, VA (dayflower, VA; 250 g ai/ha)	Plant response rating, Lambsquarters (lambsquarters; 125 g ai/ha)	other results
O=C1NCC(c2ccc(F)cc2)C1C(=O)Nc1ccccc1F (racemic) [Compound 16]	0	0	0	0	0	0	0	–	–	–	–
O=C1NCC(c2cccc(C(F)(F)F)c2)C1C(=O)Nc1ccc(F)cc1F (racemic) [Compound 207]	–	–	–	–	–	–	–	–	–	–	Plant response rating, Monochoria (monochoria; 125 g ai/ha): 65; Plant response rating, Monochoria (monochoria; 250 g ai/ha): 100; Plant response rating, Monochoria (monochoria; 500 g ai/ha): 100; Plant response rating, Oat, Wild (oat, wild; 31 g ai/ha): 0; Plant response rating, Oat, Wild (oat, wild; 62 g ai/ha): 0; Plant response rating, Oat, Wild (oat, wild; 125 g ai/ha): 5; Plant response rating, Oat, Wild (oat, wild; 250 g ai/ha): 20; Plant response rating, Wheat, Spring (wheat, spring; 31 g ai/ha): 5; Plant response rating, Wheat, Spring (wheat, spring; 62 g ai/ha): 10; Plant response rating, Wheat, Spring (wheat, spring; 125 g ai/ha): 10; Plant response rating, Wheat, Spring (wheat, spring; 250 g ai/ha): 10; Plant response rating, Wheat, Winter (wheat, winter; 31 g ai/ha): 0; Plant response rating, Wheat, Winter (wheat, winter; 62 g ai/ha): 15; Plant response rating, Wheat, Winter (wheat, winter; 125 g ai/ha): 10; Plant response rating, Wheat, Winter (wheat, winter; 250 g ai/ha): 20; Plant response rating, Chamomile (chamomile; 31 g ai/ha): 75; Plant response rating, Chamomile (chamomile; 62 g ai/ha): 80; Plant response rating, Chamomile (chamomile; 125 g ai/ha): 85; Plant response rating (chamomile; 250 g ai/ha, Chamomile, scale 0 to 100): 85
O=C1NCC(c2cccc(Br)c2)C1C(=O)Nc1ccccc1F (centres unmarked) [Compound 66]	0	0	0	0	0	0	0	0	0	0	–
O=C1NCC(c2ccc(C(F)(F)F)cc2)C1C(=O)Nc1ccc(F)c(F)c1F (centres unmarked) [Compound 232]	–	0	0	–	95	98	98	0	10	100	–
